Data from PubChem BioAssay AID1033 (Sanford-Burnham Center for Chemical Genomics, 2008).
Active and inactive are the calls of the source. No rule for the calls is given here.

Each compound was assayed against Chaperone protein DnaK (Escherichia coli (strain K12)) (UniProt P0A6Y8) (assay: E. coli DnaK SBD ligand binding – biophysical, NMR, chaperone (AID 1033)). Conditions: Purified DnaK SBD.
Chain of Chaperone protein DnaK (Escherichia coli (strain K12)) (P0A6Y8 whole entry, looked up): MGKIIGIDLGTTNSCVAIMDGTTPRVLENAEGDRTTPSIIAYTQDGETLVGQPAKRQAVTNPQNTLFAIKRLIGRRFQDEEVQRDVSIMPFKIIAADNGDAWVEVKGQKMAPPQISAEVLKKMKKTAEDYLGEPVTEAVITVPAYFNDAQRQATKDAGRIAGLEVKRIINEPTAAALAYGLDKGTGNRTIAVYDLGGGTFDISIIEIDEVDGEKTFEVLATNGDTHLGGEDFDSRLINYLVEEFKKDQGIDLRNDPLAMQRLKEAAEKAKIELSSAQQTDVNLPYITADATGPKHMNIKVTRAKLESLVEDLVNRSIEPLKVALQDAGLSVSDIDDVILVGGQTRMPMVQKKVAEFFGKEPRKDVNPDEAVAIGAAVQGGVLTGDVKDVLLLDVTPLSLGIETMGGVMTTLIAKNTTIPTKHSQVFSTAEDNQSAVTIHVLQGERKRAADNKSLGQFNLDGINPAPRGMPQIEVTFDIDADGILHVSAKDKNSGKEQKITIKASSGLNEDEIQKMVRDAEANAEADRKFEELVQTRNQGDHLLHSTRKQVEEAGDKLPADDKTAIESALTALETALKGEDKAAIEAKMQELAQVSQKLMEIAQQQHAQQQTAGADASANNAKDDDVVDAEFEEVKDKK

| Compound | Kd |
| --- | --- |
| O=C(O)CN1C(=O)c2ccc(C(=O)O)cc2C1=O | > 4 mM (inactive) |
| CNC(=O)C(=O)Nc1ccc(F)cc1 | > 4 mM (inactive) |
| OCCOc1ccc(C2=NCCO2)cc1 | > 4 mM (inactive) |
| COc1ccccc1Nc1nncc(=O)[nH]1 | > 4 mM (inactive) |
| Cc1ccc(-c2nn3c(C)nnc3s2)cc1N | > 4 mM (inactive) |
| CN(C)Cc1c(N)cccc1O | > 4 mM (inactive) |
| O=S(=O)(Nc1ccc2c(c1)OCCO2)c1cccs1 | > 4 mM (inactive) |
| CC(=O)Nc1ccc(C)cc1NC(C)=O | > 4 mM (inactive) |
| Cc1ccc(S(=O)(=O)CC(=O)N(C)C)cc1 | > 4 mM (inactive) |
| CSc1nc(NC(C)(C)C)nc(N2CCOCC2)n1 | > 4 mM (inactive) |
| OCc1cccs1 | > 4 mM (inactive) |
| CCOc1ccc(C(=O)c2ccc(OC)c(O)c2O)cc1 | > 4 mM (inactive) |
| Cc1cc(/C=N/O)nc(=O)[nH]1 | > 4 mM (inactive) |
| CCNC(CC(=O)Nc1ccc(F)cc1)C(=O)O (configuration not stated) | > 4 mM (inactive) |
| O=C(Nc1ccon1)c1ccc2c(c1)OCO2 | > 4 mM (inactive) |
| CCOC(=O)C1CCN(Cc2ccccc2)CC1=O (configuration not stated) | > 4 mM (inactive) |
| CCOC(=O)Cc1nc2ccccc2[nH]1 | > 4 mM (inactive) |
| CN(C)N1C(=O)C2CCCCC2C1=O (configuration not stated) | > 4 mM (inactive) |
| NS(=O)(=O)c1ccc(NC(=O)c2cccs2)cc1 | > 4 mM (inactive) |
| NC(=O)c1ccsc1NC(=O)c1ccco1 | > 4 mM (inactive) |
| O=C(CSc1ccnc(=O)[nH]1)NCc1ccccc1 | > 4 mM (inactive) |
| OCC1COc2ccccc2O1 (configuration not stated) | > 4 mM (inactive) |
| Cc1ccc(C(=O)N2CCOCC2)cc1Cl | > 4 mM (inactive) |
| Nc1ccc(OCc2ccccc2)cc1 | > 4 mM (inactive) |
| COC(CC(=O)O)c1nc2ccccc2s1 (configuration not stated) | > 4 mM (inactive) |

| Compound | Kd |
| --- | --- |
| CC(=O)c1ccc(NC(=S)N2CCC(O)CC2)cc1 | > 4 mM (inactive) |
| COc1c(C)c2c(c(O)c1C/C=C(\C)CCC(=O)O)C(=O)OC2 | > 4 mM (inactive) |
| O=C(O)Cn1cc(C(=O)c2cccs2)c2ccccc21 | > 4 mM (inactive) |
| Cc1ccc(CCC(N)=O)o1 | > 4 mM (inactive) |
| Cc1nc2nc(Cc3ccccc3)nn2c(C)c1Cl | > 4 mM (inactive) |
| O=C(O)C1=C[C@@H](O)[C@@H](O)[C@H](O)C1 | > 4 mM (inactive) |
| Cc1cc(=O)c2c(O)c(C)c(O)cc2o1 | > 4 mM (inactive) |
| O=c1[nH]c(=S)c2c(n1-c1ccccc1)CCC2 | > 4 mM (inactive) |
| CC(C)C(=O)NC(=S)N1CCOCC1 | > 4 mM (inactive) |
| CNC(=O)Cn1c(=O)n(C)c2ccccc21 | > 4 mM (inactive) |
| Clc1ccc(-c2noc(CN3CCCC3)n2)cc1 | > 4 mM (inactive) |
| O=C(O)c1ccc(NCc2cccnc2)cc1 | > 4 mM (inactive) |
| Nc1c(Nc2ccccc2)c2ccccc2oc1=O | > 4 mM (inactive) |
| O=C(Nc1ccc(N2CCOCC2)cc1)c1cnsn1 | > 4 mM (inactive) |
| CCCOn1nnnc1-c1ccccc1 | > 4 mM (inactive) |
| C=CCn1c(N)c(C(=O)N2CCOCC2)sc1=S | > 4 mM (inactive) |
| Nc1ccc2c(C(F)(F)F)cc(=O)oc2c1 | > 4 mM (inactive) |
| Cc1cc(C(=O)NC(C)c2ccncc2)no1 (configuration not stated) | > 4 mM (inactive) |
| O=C1CC(=O)N(c2ccccc2F)C(=S)N1 | > 4 mM (inactive) |
| Nc1n[nH]c(=S)n1-c1ccccc1 | > 4 mM (inactive) |
| NC(=S)NC(=O)CN1C(=O)c2ccccc2C1=O | > 4 mM (inactive) |
| Nc1ncnc2c1ncn2[C@@H]1O[C@H](CO)[C@@H](O)[C@H]1O | > 4 mM (inactive) |
| CC1(C)Oc2ccc3ccc(=O)oc3c2CC1O (configuration not stated) | > 4 mM (inactive) |
| O=C1C2C3C=CC(O3)C2C(=O)N1c1ccccc1 (configuration not stated) | > 4 mM (inactive) |
| CN1C(=O)CC[C@H]1c1cccnc1 | > 4 mM (inactive) |

| Compound | Kd |
| --- | --- |
| Cc1cc2c(=O)n(C)c(SCC(N)=O)nc2s1 | > 4 mM (inactive) |
| NC(=O)Cn1nnc(-c2ccc(C(F)(F)F)cc2)n1 | > 4 mM (inactive) |
| Nc1ncnc(NCCCO)c1[N+](=O)[O-] | > 4 mM (inactive) |
| CCOc1cc(S(=O)(=O)N2CCOCC2)ccc1F | > 4 mM (inactive) |
| CCOC(=O)c1nc2ccccc2c(=O)n1N | > 4 mM (inactive) |
| CN(C)c1nc(N)nc(-c2nc3ccccc3s2)n1 | > 4 mM (inactive) |
| O[C@H]1C=C2CCN3Cc4cc5c(cc4C(C23)[C@@H]1O)OCO5 (some centres not stated) | > 4 mM (inactive) |
| Cc1[nH]n(-c2ccccc2)c(=O)c1[N+](=O)[O-] | > 4 mM (inactive) |
| O=c1[nH]c(=O)n(-c2ccc(F)cc2)c(O)c1/C=C1/C=CC=N1 | > 4 mM (inactive) |
| COc1cc(OC)c(-c2nc3cnccc3n2C)cc1OC | > 4 mM (inactive) |
| Nc1ccc2nsnc2c1 | > 4 mM (inactive) |
| NCc1ccc(-c2cccs2)cc1 | > 4 mM (inactive) |
| O=C(CCc1ccc(O)cc1)c1c(O)cc(O)cc1O | > 4 mM (inactive) |
| O=C(c1ccco1)N1CCN(Cc2cccc(F)c2)CC1 | > 4 mM (inactive) |
| OCC(O)Cc1ccc2c(c1)OCO2 (configuration not stated) | > 4 mM (inactive) |
| Nc1csc(C(=O)O)c1 | > 4 mM (inactive) |
| C/C=C(\C)c1nnc(NC(=O)C(C)C)s1 | > 4 mM (inactive) |
| CCOc1cc(S(=O)(=O)n2nc(C)cc2C)ccc1F | > 4 mM (inactive) |
| Cn1c(CO)nc2ccccc21 | > 4 mM (inactive) |
| c1ccc(-c2nc3ccccc3nc2-c2ccccn2)nc1 | > 4 mM (inactive) |
| O=C1N=c2ccccc2=C1c1sc(=S)[nH]c1O | > 4 mM (inactive) |
| Cc1cc(NC(=O)NCCCSc2nncn2C)no1 | > 4 mM (inactive) |
| CC(=O)Nc1ccc(Oc2nc(C)cc(C)n2)cc1 | > 4 mM (inactive) |
| CN=C(C)c1c(O)n(C)c(=O)n(C)c1=O | > 4 mM (inactive) |
| Cc1cc(=O)[nH]c(NCc2cccnc2)n1 | > 4 mM (inactive) |

| Compound | Kd |
| --- | --- |
| O=C(O)CC1C(=O)NCCN1Cc1ccccc1 (configuration not stated) | > 4 mM (inactive) |
| NCc1cccc2nsnc12 | > 4 mM (inactive) |
| CCOC(=O)c1ccc(Oc2ccc(C)nn2)cc1 | > 4 mM (inactive) |
| CC(=O)c1cccc(NC2=NCC(C)(C)S2)c1 | > 4 mM (inactive) |
| COC(=O)c1scc(S(C)(=O)=O)c1-n1cccc1 | > 4 mM (inactive) |
| NCCCCNCCCN | > 4 mM (inactive) |
| O=C(O)C(O)C(O)C(O)C(O)C(=O)O (configuration not stated) | > 4 mM (inactive) |
| C/C=C/C=N/NC(=O)c1ccc(=O)n(C)c1 | > 4 mM (inactive) |
| CC(=O)Nc1nc(-c2cccs2)cs1 | > 4 mM (inactive) |
| O=C(/C=C/c1ccc(O)cc1)c1ccc(O)cc1O | > 4 mM (inactive) |
| COCC(=O)Nc1cccc(Br)c1 | > 4 mM (inactive) |
| O=C(C1CCNCC1)N1CCCCCC1 | > 4 mM (inactive) |
| c1ccc(-c2nsc(N3CCCNCC3)n2)cc1 | > 4 mM (inactive) |
| C=CCn1c(-c2ccc(O)cc2)n[nH]c1=S | > 4 mM (inactive) |
| CCC(C)C(=O)O[C@@H]1C[C@@]2(C)[C@H](c3ccoc3)OC(=O)CC23OC2(C)OC34[C@H](OC(=O)C(C)C)[C@@]3(O)[C@@H](OC(=O)C5(C)OC5C)[C@@]5(C)C[C@]3(O)[C@@](C)([C@H]5CC(=O)OC)C14O2 (some centres not stated) | > 4 mM (inactive) |
| CC1(C)C2C[C@@H](O)[C@]3(C)C(CC[C@@]4(C)[C@H](c5ccoc5)OC(=O)[C@H]5O[C@]543)[C@@]2(C)[C@@H](O)C[C@H]1O (some centres not stated) | > 4 mM (inactive) |
| CSc1nc(C)cc(-n2ccc(=O)[nH]c2=O)n1 | > 4 mM (inactive) |
| O=C1c2ccccc2C(=O)N1Cc1ccco1 | > 4 mM (inactive) |
| Cn1nnc2c(Cl)ncnc21 | > 4 mM (inactive) |
| O=C(O)c1cc2ccccc2o1 | > 4 mM (inactive) |
| NCc1n[nH]c(=O)c2ccccc12 | > 4 mM (inactive) |
| COc1ccc(C)cc1S(=O)(=O)N1CCCCC1 | > 4 mM (inactive) |
| OCCNc1ccccn1 | > 4 mM (inactive) |
| CC(C)=CCc1c2c(c(O)c3c(=O)c(O)c(-c4ccccc4)oc13)C=CC(C)(C)O2 | > 4 mM (inactive) |
| O=c1[nH]cc(NC(=S)N2CCOCC2)c(=O)[nH]1 | > 4 mM (inactive) |

| Compound | Kd |
| --- | --- |
| COc1cc2c(cc1OC)[C@@H]1C(=O)c3ccc4c(c3O[C@@H]1CO2)C=CC(C)(C)O4 | > 4 mM (inactive) |
| O=S1(=O)CCC(NC(=S)N2CCCCC2)C1 (configuration not stated) | > 4 mM (inactive) |
| O=S1(=O)CCC(NC(=S)Nc2ccccn2)C1 (configuration not stated) | > 4 mM (inactive) |
| O=S1(=O)CCC(N2CCCCC2)C1 (configuration not stated) | > 4 mM (inactive) |
| C=CCc1cc(C(=O)N2CCCCC2)ccc1O | > 4 mM (inactive) |
| O=C(/C=C(\O)c1ccccc1)c1ccccc1O | > 4 mM (inactive) |
| COC(=O)c1cccnc1Oc1ccccc1 | > 4 mM (inactive) |
| CC(=O)Nc1c(Cl)cnn(-c2ccccc2)c1=O | > 4 mM (inactive) |
| COC(=O)C(O)[C@@H]1C2(C)C(=O)[C@@H](CC3=C4CC(=O)O[C@@H](c5ccoc5)[C@]4(C)CCC32)[C@H](OC(C)=O)C1(C)C (some centres not stated) | > 4 mM (inactive) |
| CSc1nnc(CN2CCSCC2)n1C | > 4 mM (inactive) |
| O=C1NC(=O)C(=Cc2cccs2)C(=O)N1 | > 4 mM (inactive) |
| NC(N)=Nc1nc2ccccc2o1 | > 4 mM (inactive) |
| NCc1ccc(-n2cccn2)cc1 | > 4 mM (inactive) |
| c1ccc(-c2noc(-c3ccco3)n2)nc1 | > 4 mM (inactive) |
| CC1(C)C(=O)CC[C@@]2(C)C1C[C@@H](O)[C@@]1(C)C3=CC(=O)O[C@@H](c4ccoc4)[C@]3(C)CCC21 (some centres not stated) | > 4 mM (inactive) |
| COc1ccc2c(c1)[n+](=O)c(C(C)=O)c(C)n2[O-] | > 4 mM (inactive) |
| CCOC(=O)CSc1nnc(C)c(=O)[nH]1 | > 4 mM (inactive) |
| CC(=O)Nc1ccc(S(=O)(=O)N(C)C)cc1 | > 4 mM (inactive) |
| O=C(O)c1ccc2ccccc2n1 | > 4 mM (inactive) |
| COc1cccc(Oc2ccc(N)cc2)c1 | > 4 mM (inactive) |
| O=C(NCO)c1ccccc1Cl | > 4 mM (inactive) |
| CC(C)NC(=S)NCc1cnn(C)c1 | > 4 mM (inactive) |
